The values below come from patent US6858739B2, “Indole and benzimidazole 15-lipoxygenase inhibitors” (Warner-Lambert Company, priority 2000, dated 2005).

Structures are written as SMILES. pIC50: −log10 of the molar value.

As usually defined, the melting point is the temperature, or range, at which the solid turns liquid. One may read the pIC50 as the IC50 on a negative log10 scale, so that one unit is a factor of ten. The low end stands for a high IC50, the high end for a low IC50. One may read the inhibition as the drop in the measured response relative to a control, in per cent.

The target of one data set is T1, human 15-LO (Homo sapiens, UniProt P16050).
T1 sequence (P16050 1-662): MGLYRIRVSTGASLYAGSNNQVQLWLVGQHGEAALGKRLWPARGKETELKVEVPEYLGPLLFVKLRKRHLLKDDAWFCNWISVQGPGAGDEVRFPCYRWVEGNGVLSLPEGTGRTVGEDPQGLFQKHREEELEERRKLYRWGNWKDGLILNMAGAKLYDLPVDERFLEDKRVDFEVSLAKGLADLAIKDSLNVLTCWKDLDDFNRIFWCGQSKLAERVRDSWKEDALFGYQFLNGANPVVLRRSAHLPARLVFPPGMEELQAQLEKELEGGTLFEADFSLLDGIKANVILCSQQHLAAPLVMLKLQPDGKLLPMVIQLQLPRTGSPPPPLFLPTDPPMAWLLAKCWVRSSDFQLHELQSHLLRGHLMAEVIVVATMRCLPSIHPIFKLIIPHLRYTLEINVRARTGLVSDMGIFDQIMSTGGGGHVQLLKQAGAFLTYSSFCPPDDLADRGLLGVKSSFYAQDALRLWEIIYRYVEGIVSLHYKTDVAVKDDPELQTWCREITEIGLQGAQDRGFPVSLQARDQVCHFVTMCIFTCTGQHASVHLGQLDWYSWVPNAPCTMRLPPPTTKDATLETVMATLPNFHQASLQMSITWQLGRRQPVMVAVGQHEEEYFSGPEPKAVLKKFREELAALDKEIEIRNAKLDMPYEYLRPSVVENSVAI
Description: 15-LO inhibition, human enzyme. Particulars: linoleic acid as substrate. The data set is classed as biochemical. Here is the method: (§1) The compounds described above are effective inhibitors of 15-LO when evaluated in standard assays routinely utilized to measure 15-LO activity. Specifically, representative compounds were evaluated by the methods described by Auerbach et al., Analytical Biochemistry, 1992;201:375-380. Two in vitro assays were utilized, one utilizing rabbit reticulocyte 15-LO, the other using human 15-LO. Both used linoleic acid as substrate, to enzymatically produce a peroxide oxidation product known as 13(S)-HPODE. N-Benzoyl leucomethylene blue was utilized as a colorimetric reagent for detection and quantification of the peroxide formation. Also, HPLC was utilized to quantify the oxidation following incubation at 4° C. for 10 minutes.
(§2) Data Column 1 gives the concentration of compound required to inhibit 50% of the activity of 15-LO (IC50) when measured by the HPLC method of Auerbach et al. using rabbit enzymes, and data Column 2 gives data from human 15-LO enzyme.

Data set [1] has as its target T2, rabbit reticulocyte 15-LO (Oryctolagus cuniculus, UniProt P12530).
T2 construct: one utilizing rabbit reticulocyte 15-LO; from tissue; host or cells: rabbit reticulocytes
T2 sequence (P12530 1-663): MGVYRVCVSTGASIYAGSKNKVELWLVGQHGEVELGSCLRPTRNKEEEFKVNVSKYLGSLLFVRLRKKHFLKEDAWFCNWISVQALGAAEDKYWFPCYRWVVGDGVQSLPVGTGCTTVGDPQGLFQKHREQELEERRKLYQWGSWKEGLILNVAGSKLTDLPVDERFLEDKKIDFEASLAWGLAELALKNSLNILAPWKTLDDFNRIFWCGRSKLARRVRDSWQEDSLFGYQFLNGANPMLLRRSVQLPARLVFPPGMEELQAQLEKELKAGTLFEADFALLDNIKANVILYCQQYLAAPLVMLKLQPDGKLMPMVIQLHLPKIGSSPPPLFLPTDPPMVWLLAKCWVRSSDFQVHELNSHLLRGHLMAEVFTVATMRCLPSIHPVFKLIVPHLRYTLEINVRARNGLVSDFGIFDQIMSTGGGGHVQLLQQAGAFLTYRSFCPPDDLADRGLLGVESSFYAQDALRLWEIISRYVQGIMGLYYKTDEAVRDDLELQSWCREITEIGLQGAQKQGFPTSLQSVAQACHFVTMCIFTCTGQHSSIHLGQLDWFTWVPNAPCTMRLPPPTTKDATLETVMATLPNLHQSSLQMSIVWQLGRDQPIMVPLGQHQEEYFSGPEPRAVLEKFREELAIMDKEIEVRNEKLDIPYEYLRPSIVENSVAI
Nature of the data set: 15-LO inhibition, rabbit reticulocyte enzyme (HPLC method of Auerbach et al.). The data set is classed as biochemical. The conditions noted are these: linoleic acid as substrate, incubation at 4° C. for 10 minutes. On the procedure: as §1, §2

Regarding `COc1ccc(-c2cc3cc(F)c(F)cc3[nH]2)cc1NC(=S)Nc1ccc(C(=O)O)cc1` [Example 5, 4-{3-[5-(5,6-Difluoro-1H-indol-2-yl)-2-methoxy-phenyl]-thioureido}-benzoic acid], the melting point fell in the range of 201 to 203 °C. Besides, the pIC50 against human 15-LO is 7.89. The same molecule had a negative-log IC50 (pIC50) in data set [1] of 7.96.
The corresponding values for `COc1ccc(-c2cc3cc(F)c(F)cc3[nH]2)cc1NC(=S)Nc1cccc(C(=O)O)c1` [Example 6, 3-{3-[5-(5,6-Difluoro-1H-indol-2-yl)-2-methoxy-phenyl]-thioureido}-benzoic acid] are 221 to 223 °C, 7.60 and 8.70.
`COc1ccc(-c2cc3cc(F)c(F)cc3[nH]2)cc1NS(C)(=O)=O` [Example 7, N-[5-(5,6-Difluoro-1H-indol-2-yl)-2-methoxy-phenyl]-methanesulfonamide] yielded a melting point of 254 to 256 °C. The molecule further had a pIC50 against human 15-LO of 7.72. Moreover, in data set [1], the negative-log IC50 (pIC50) is 8.00.
The corresponding values for `COc1ccc(-c2cc3cc(F)c(F)cc3[nH]2)cc1NS(=O)(=O)c1cc(Cl)cc(Cl)c1` [Example 8, 3,5-Dichloro-N-[5-(5,6-difluoro-1H-indol-2-yl)-2-methoxy-phenyl]-benzenesulfonamide] are 217 to 219 °C, 7.14 and 7.72.
The molecule `COc1ccc(-c2cc3cc(F)c(F)cc3[nH]2)cc1NS(=O)(=O)c1cccs1` [Example 9, Thiophene-2-sulfonic acid [5-(5,6-difluoro-1H-indol-2-yl)-2-methoxy-phenyl]-amide] displayed a melting point of 211 to 213 °C. The same molecule showed a negative logarithm of the IC50 (pIC50) at human 15-LO of 8.15. This molecule showed a pIC50 in data set [1] of 7.40.
On to `COc1ccc(-c2nc3cc(Cl)c(Cl)cc3n2C(=O)OCc2ccccc2)cc1NS(=O)(=O)c1cccs1` [Example 10, 5,6-Dichloro-2-[4-methoxy-3-(thiophene-2-sulfonylamino)-phenyl]-benzoimidazole-1-carboxylic acid benzyl ester], for which the melting point lay in the range of 195 to 198 °C. On human 15-LO (at 10 micromolar), this molecule came in with an inhibition at 10 µM of 81%. For the same molecule, in data set [1], the pIC50 is 5.86.
On to `COc1ccc(-c2cc3cc(F)c(F)cc3[nH]2)cc1NCc1cccs1` [Example 12, [5-(5,6-Difluoro-1H-indol-2-yl)-2-methoxy-phenyl]-thiophen-2-ylmethyl-amine], for which the melting point fell in the range of 190 to 192 °C. This molecule showed a negative-log IC50 (pIC50) at human 15-LO of 6.34. The pIC50 in data set [1] was 7.35.
The corresponding values for `COc1ccc(CNc2cc(-c3cc4cc(F)c(F)cc4[nH]3)ccc2OC)cc1` [Example 13, [5-(5,6-Difluoro-1H-indol-2-yl)-2-methoxy-phenyl]-(4-methoxy-benzyl)-amine] are 173 to 175 °C, 6.38 and 7.40.
The matching figures for `COC(=O)c1ccc(CNc2cc(-c3cc4cc(F)c(F)cc4[nH]3)ccc2OC)cc1` [Example 14, 4-{[5-(5,6-Difluoro-1H-indol-2-yl)-2-methoxy-phenylamino]-methyl}-benzoic acid methyl ester]: 168 to 170 °C, 5.90 and 6.95.
With `COc1ccc(-c2cc3cc(F)c(F)cc3[nH]2)cc1NS(=O)(=O)c1cccc([N+](=O)[O-])c1` [Example 15, N-[5-(5,6-Difluoro-1H-indol-2-yl)-2-methoxy-phenyl]-3-nitro-benzenesulfonamide], the melting point lay in the range of 228 to 230 °C. The same molecule gave a pIC50 against human 15-LO of 7.31. For the same molecule, in data set [1], the negative-log IC50 (pIC50) was 6.91.
The corresponding values for `COc1ccc(-c2cc3cc(Cl)c(Cl)cc3[nH]2)cc1N` [Example 18, 5-(5,6-Dichloro-1H-indol-2-yl)-2-methoxy-phenylamine] are 235 to 237 °C, 6.44 and 7.43.
On to `COc1ccc(-c2cc3cc(Cl)c(Cl)cc3[nH]2)cc1NC(=S)Nc1cccc(C(=O)O)c1` [Example 19, 3-{3-[5-(5,6-Dichloro-1H-indol-2-yl)-2-methoxy-phenyl]-thioureido}-benzoic acid], for which the melting point lay in the range of 216 to 218 °C. On human 15-LO, this molecule had a pIC50 of 6.60. The negative logarithm of the IC50 (pIC50) in data set [1] is 7.89.
As for `CCOP(=O)(Cc1ccc(NC(=S)Nc2cc(-c3cc4cc(F)c(F)cc4[nH]3)ccc2OC)cc1)OCC` [Example 24, (4-{3-[5-(5,6-Difluoro-1H-indol-2-yl)-2-methoxy-phenyl]-thioureido}-benzyl)-phosphonic acid diethyl ester], the melting point lay within 180 to 182 °C. Also, the pIC50 against human 15-LO is 7.04. The pIC50 in data set [1] was 7.74.
The matching figures for `COc1ccc(-c2cc3cc(F)c(F)cc3[nH]2)cc1NC(=S)NCCO` [Example 37, 1-[5-(5,6-Difluoro-1H-indol-2-yl)-2-methoxy-phenyl]-3-(2-hydroxy-ethyl)-thiourea]: 191 to 193 °C, 7.48 and 7.35.
`COc1ccc(-c2cc3cc(F)c(F)cc3[nH]2)cc1NC(=S)NCCNC(=O)OC(C)(C)C` [Example 38, (2-{3-[5-(5,6-Difluoro-1H-indol-2-yl)-2-methoxy-phenyl]-thioureido}-ethyl)-carbamic acid tert-butyl ester] registered a melting point of 110 to 113 °C. The negative logarithm of the IC50 (pIC50) on human 15-LO is 7.60. This molecule showed a pIC50 in data set [1] of 7.72.
In the case of `COc1ccc(-c2cc3cc(F)c(F)cc3[nH]2)cc1NC(=S)Nc1ccc(F)c(F)c1` [Example 39, 1-[5-(5,6-Difluoro-1H-indol-2-yl)-2-methoxy-phenyl]-3-(3,4-difluoro-phenyl)-thiourea], the melting point is 183 to 186 °C. On human 15-LO, this molecule showed a pIC50 of 7.44. The pIC50 in data set [1] is 7.77.
`COc1ccc(-c2cc3cc(F)c(F)cc3[nH]2)cc1NC(=S)Nc1cccnc1` [Example 41, 1-[5-(5,6-Difluoro-1H-indol-2-yl)-2-methoxy-phenyl]-3-pyridin-3-yl-thiourea] gave a melting point of 128 to 130 °C. The molecule also showed a pIC50 at human 15-LO of 8.00. In data set [1], this molecule showed a pIC50 of 8.30.
The corresponding values for `COc1ccc(-c2cc3cc(F)c(F)cc3[nH]2)cc1NCc1ccc(C#N)cc1` [Example 50, [5-(5,6-Difluoro-1H-indol-2-yl)-2-methoxy-phenyl]-(4-cyano-benzyl)-amine] are 158 to 159 °C, 6.94 and 7.13.
